Tests used:
Type in all cases: functional
MCF7 [1] = assay: Growth inhibition of Homo sapiens (human) MCF-7 cells assessed as total cell growth after 48 hr by SRB assay
MCF7 [2] = assay: Growth inhibition of Homo sapiens (human) MCF-7 cells assessed as cell growth at 10 '-5 M after 48 hr by SRB assay; conditions: MCF7, 48 h, read-out: Activity
MCF7 [3] = assay: Growth inhibition of Homo sapiens (human) MCF-7 cells assessed as cell growth at 10 '-7 M after 48 hr by SRB assay; conditions: MCF7, 48 h, read-out: Activity
MCF7 [4] = assay: Growth inhibition of Homo sapiens (human) MCF-7 cells assessed as cell growth at 10 '-6 M after 48 hr by SRB assay; conditions: MCF7, 48 h, read-out: Activity
MCF7 [5] = assay: Growth inhibition of Homo sapiens (human) MCF-7 cells assessed as cell growth at 10 '-4 M after 48 hr by SRB assay; conditions: MCF7, 48 h, read-out: Activity
MCF7 [6] = assay: Cytotoxicity against Homo sapiens (human) MCF-7 cells after 48 hr by SRB assay; conditions: MCF7, 48 h
MCF7 [7] = assay: Growth inhibition of Homo sapiens (human) MCF-7 cells after 48 hr by SRB assay; conditions: MCF7, 48 h

Compound	TGI (MCF7 [1]) [µM]	growth at 10 µM (MCF7 [2]) [%]	growth at 0.1 µM (MCF7 [3]) [%]	growth at 1 µM (MCF7 [4]) [%]	growth at 100 µM (MCF7 [5]) [%]	LC50 (concentration killing 50% of cells) (MCF7 [6]) [µM]	GI50 (MCF7 [7]) [µM]
O=C1CC(c2ccc(Br)cc2)Nc2c(Br)cc(Br)cc21 (stereo unspecified)	2.6	12.5	69.7	69.7	-43	> 100	0.151
O=C1CC(c2ccc([N+](=O)[O-])cc2)Nc2c(Br)cc(Br)cc21 (stereo unspecified)	0.132	-4.4	50.5	8.6	-52.3	> 100	< 0.1
N#Cc1ccc(C2CC(=O)c3cc(Br)cc(Br)c3N2)cc1 (stereo unspecified)	0.126	-5.1	43.1	8.2	-58.5	> 100	< 0.1
COc1ccc(C2CC(=O)c3cc(Br)cc(Br)c3N2)cc1 (stereo unspecified)	> 100	87.8	168	140	7.1	> 100	> 100
O=C1CC(c2ccc(O)cc2)Nc2c(Br)cc(Br)cc21 (stereo unspecified)	0.151	-2	3.7	9.6	-45.3	> 100	< 0.1
O=C1CC(c2cccc(O)c2)Nc2c(Br)cc(Br)cc21 (stereo unspecified)	> 100	25.6	118	108	14.7	> 100	> 100
CN(C)c1ccc(C2CC(=O)c3cc(Br)cc(Br)c3N2)cc1 (stereo unspecified)	> 100	130	164	144	43	> 100	> 100
COc1cc(C2CC(=O)c3cc(Br)cc(Br)c3N2)cc(OC)c1OC (stereo unspecified)	> 100	99.6	130	110	34.3	> 100	> 100
O=C1CC(c2ccc(F)cc2)Nc2c(Br)cc(Br)cc21 (stereo unspecified)	0.145	-3.6	30.1	9.2	-48.1	> 100	< 0.1
O=C1CC(c2ccc(Cl)cc2)Nc2c(Br)cc(Br)cc21 (stereo unspecified)	2.87	34.5	60.2	61.7	-40	> 100	0.146
COc1cccc2c1C(=O)c1c(O)c3c(c(O)c1C2=O)C[C@@](O)(C(=O)CO)C[C@@H]3O[C@H]1C[C@H](N)[C@H](O)[C@H](C)O1.Cl [DOXORUBICIN HYDROCHLORIDE]	0.183	-23.7	53.5	-13.9	-33.5	–	< 0.1

Source: ChEMBL document CHEMBL3044958, “Synthesis, evaluation of 6,8-dibromo-2-aryl-2,3-dihydroquinolin-4(1H)-ones in MCF-7 (breast cancer) cell lines and their docking studies” (2012)
